Experimental data taken from US20240246960A1 (adMare Therapeutics Society, priority 2021, published 2024).
Where two headings read alike, the source gives them in different places.

What was measured:
[1] = molecular target: T1, pDNA-PK ser2056 induction in HCT116 spheroids (Homo sapiens, UniProt P78527); test: Multicellular tumour spheroid + radiation, pDNA-PK inhibition, HCT116; format: cell-based; settings: 20 Gy
T1 construct: endogenous in cells; host or cells: HCT116 multicellular tumour spheroids
Protocol: Multicellular tumour spheroids determination of compound inhibition of pDNA-PK induction following radiation. Tumour spheroids were grown to approximately 0.5 mm in diameter and irradiated with 20 Gy in combination with inhibitor test compounds to determine their potency. Inhibitor concentration for 50% reduction in pDNA-PK induction (IC50) was determined via immunohistochemical staining in spheroid cryosections taken 2 hours following radiation.
Spheroid, Cell Line: […], Immunohistochemical endpoint, pDNA-PK inhibition, EC50 in μm.
(§1) Spheroid+radiation pDNA-PK. Radiation: 20 Gy. Drug: serial dilution 5 or 10 μM down to 3.5 nM (11 wells). Spheroids: 3-6 spheroids per well (300-500 μm diameter). 20% O2 and 5% CO2. 96 well plate format.
Protocol: pre-incubate 1 hours with drug, irradiate with 20 Gy, post-incubate 2 hours with drug, freeze and cryosection ×3 replicates.
Endpoint: fluorescent immunostin pDNA-PK ser2056 and image on microscope.
Analysis: determine EC50 concentration that decreases pDNA-PK induction by 50% after radiation.
Multicellular tumour spheroids determination of compound inhibition of pDNA-PK induction following radiation. Tumour spheroids were grown to approximately 0.5 mm in diameter and irradiated with 20 Gy in combination with inhibitor test compounds to determine their potency. Inhibitor concentration for 50% reduction in pDNA-PK induction (IC50) was determined via immunohistochemical staining in spheroid cryosections taken 2 hours following radiation. For cell survival endpoint 8 Gy radiation was used and 3 hours following radiation spheroids were dissociated, counted and plated for colony forming endpoint.
as §1, with “format. Endpoint: fluorescent immunostain pDNA-PK ser2056 and image on microscope. Analysis: determine EC50 concentrations that decreases pDNA-PK induction […] after irradiation.” for “format.”
Multicellular tumour spheroids were used to determine potency of test compounds in a 3D tissue environment using inhibition of pDNA-PK induction following radiation or cell survival as the endpoint. For the pDNA-PK endpoint HCT116 or FaDU tumour spheroids were grown to approximately 0.5 mm in diameter and irradiated with 20 Gy in combination with inhibitor test compounds to determine their potency. Experiments were carried out in 96 well plates containing 0.7 mls of MEM media containing 10% FBS and 10 mM glucose under 20% O2 & 5% CO2 at 37° C. Following dilution of compounds 1:1000 from DMSO stocks, compounds were serially diluted from 10 μM down to 3.5 nM and 5-10 spheroids added. 96 well plates were constantly stirred to avoid spheroids settling during the course of the experiment. The inhibitor concentration for 50% reduction in pDNA-PK induction (EC50) was determined via immunohistochemical staining in spheroid cryosections taken 2 hours following radiation using anti-pDNA-PK (ser 2056) and fixed immediately in formalin following sectioning. For cell survival endpoint 8 Gy radiation was used and, 3 hours following radiation, spheroids were dissociated, counted and plated for colony forming endpoint. Data presented in the table compound potency as EC50 [μM].

[2] = molecular target: T2, DNA-PK (Homo sapiens, UniProt P78527); test: DNA-PK Assay for Biochemical Enzymatic Inhibition (ADP Glo Kinase assay); settings: Table 1
T2 construct: purchased Invitrogen PR9107A
Protocol: A biochemical assay was performed to identify IC50 values against DNA-PK activity in a two-step reaction with a kinase reaction followed by ADP Glo™ Kinase assay Kit (Promega V9102).
Three-fold serial dilutions of compounds in DMSO were prepared in kinase assay buffer (50 mM HEPES pH 7.5, 20 mM MgCl2, 100 mM KCl, 50 μM DTT, 10 μg/ml calf thymus DNA, 0.01% Tween 20). Kinase assay buffer was used to prepare compound treatments to 0.02% DMSO (dimethyl sulphoxide) content. DMSO controls were prepared to produce a maximum and minimum luminescence signal for normalization. Substrate (Anaspec, AS-60210-5) and ATP (Promega V9102) and ATP mix was prepared by dilution in kinase assay buffer for 434.4 μM and 64.4 μM final assay concentrations, respectively. Compounds and control were added to 25 ng DNA-PK enzyme (Invitrogen, PR9107A) diluted in kinase buffer in assay plate (Corning 267459) and incubated for 15 minutes at room temperature prior to addition of substrate and ATP mix.
Throughout the assay, each time a reagent was added to the microplate, it was centrifuged for 1 minute at 1300 rcf. All reagents were added, and incubations carried out at room temperature. The reaction was then incubated for 60 minutes. ADP-ATP standards at 0, 4, 10, 40, 80, and 100% ADP (prepared as specified in the ADP Glo™ Kinase assay kit) were also added to the microplate at a volume equal to the total kinase reaction. The ADP Glo™ Kinase Assay kit was then used to quantify DNA-PK activity: following the 60-minute incubation, a 1:1 volume of ADP Glo reagent was added to all wells, then following a further 45-minute incubation, a 1:1 volume of Kinase Detection Reagent was added to all wells. After this two-step assay, plates were incubated in a Synergy-Neo2 plate reader for 30 minutes with gentle shaking, followed by endpoint luminescent read Luminescence data was normalized by subtracting the background signal and expressing all background-adjusted values as a percentage of the average maximum signal. The data was then expressed as percent inhibition by subtracting from 100% (i.e. maximum luminescent signal will be 0% inhibition) and the resulting data plotted against ten concentration points on a logarithmic scale, using GraphPad Prism. Non-linear regression analysis was performed on each concentration response curve and the log [inhibitor] vs response—variable slope (four parameters) equation was selected to generate IC50 values.

[3] = molecular target: T3, DNA-PK phosphorylation at Serine 2056 (Homo sapiens, UniProt P78527); test: Cellular Assay for Inhibition of DNA-PK Phosphorylation at Serine 2056 (FaDu cells, neocarzinostatin, sandwich ELISA); format: cell-based; settings: Table 1
T3 construct: host or cells: FaDu
Method in brief: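 Readout was pSer2056 and total DNA-PK, measured by sandwich ELISA on protein-normalized lysates. Prior to lysis, compound was applied to FaDu cells for 1 h (0.3% DMSO), followed by 2 h of 1 μg/mL neocarzinostatin. IC50 values were fitted from log concentration versus % inhibition normalized to DMSO and NCS controls.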

[4] = Example 7, spheroid, cell line HCT115 [sic], 20% O2, read-out: EC50 (pDNA-PK inhibition, immunohistochemical endpoint)
[5] = Example 9 Study 2, 20% O2, read-out: Spheroid Cell line: HCT116 Immunohistochemical endpoint pDNA-PK inhibition EC50
[6] = Example 8, spheroid, read-out: Cell line: HCT116 Immunohistochemical endpoint pDNA-PK inhibition EC50

SMILES	EC50 [1, 4] [µM]	EC50 [1, 5] [µM]	IC50 [2] [µM]	IC50 [3] [µM]	EC50 [1, 6] [µM]
Cc1cc2ncnn2cc1N[C@H]1CC[C@@H](Oc2nc(N3CCOCC3)cc3ncccc23)CC1 [Compound 91, 7-Methyl-N-((1s,4s)-4-((7-morpholino-1,6-naphthyridin-5-yl)oxy)cyclohexyl)-[1,2,4]triazolo[1,5-a]pyridin-6-amine]	10 to 100	10 to 100	0.001 to 0.01	1 to 10	
CCCC(=O)N[C@H]1CC[C@@H](Oc2nc(N3CCOCC3)cc3ncccc23)CC1 [Compound 103, N-((1s,4s)-4-((7-Morpholino-1,6-naphthyridin-5-yl)oxy)cyclohexyl)butyramide]	10 to 100	10 to 100	0.001 to 0.01	0.1 to 1	10 to 100
O=C(N[C@H]1CC[C@@H](Oc2nc(N3CCOCC3)cc3ncccc23)CC1)c1ccccc1 [Compound 110, N-((1s,4s)-4-((7-Morpholino-1,6-naphthyridin-5-yl)oxy)cyclohexyl)benzamide]	1 to 10	1 to 10	< 0.0005	< 0.1	1 to 10
O=C(N[C@H]1CC[C@@H](Oc2nc(N3CCOCC3)cc3ncccc23)CC1)C1CCCO1 (some centres unmarked) [Compound 134, N-((1s,4s)-4-((7-Morpholino-1,6-naphthyridin-5-yl)oxy)cyclohexyl)tetrahydrofuran-2-carboxamide]	10 to 100	10 to 100	0.001 to 0.01	1 to 10	10 to 100
CC(C)S(=O)(=O)Nc1cnc2cc(N3CCOCC3)nc(O[C@H]3CC[C@@H](Nc4ncccn4)CC3)c2c1 [Compound 187, N-(7-morpholino-5-(((1s,4s)-4-(pyrimidin-2-ylamino)cyclohexyl)oxy)-1,6-naphthyridin-3-yl)propane-2-sulfonamide]	10 to 100	10 to 100	0.001 to 0.01	1 to 10	
CCCS(=O)(=O)Nc1cnc2cc(N3CCOCC3)nc(O[C@H]3CC[C@@H](Nc4ncccn4)CC3)c2c1 [Compound 189, N-(7-morpholino-5-(((1s,4s)-4-(pyrimidin-2-ylamino)cyclohexyl)oxy)-1,6-naphthyridin-3-yl)propane-1-sulfonamide]	10 to 100	10 to 100	0.001 to 0.01	1 to 10	

Continued, values first:

EC50 [1, 4] [µM]	EC50 [1, 5] [µM]	IC50 [2] [µM]	IC50 [3] [µM]	EC50 [1, 6] [µM]	SMILES
1 to 10	1 to 10	0.0005 to 0.001	0.1 to 1		c1cnc2cc(N3CCOCC3)nc(O[C@H]3CC[C@@H](Nc4ccc5nccn5n4)CC3)c2c1 [Compound 90, N-((1s,4s)-4-((7-Morpholino-1,6-naphthyridin-5-yl)oxy)cyclohexyl)imidazo[1,2-b]pyridazin-6-amine]
1 to 10	1 to 10	0.001 to 0.01	0.1 to 1		c1cnc2cc(N3CCOCC3)nc(O[C@H]3CC[C@@H](Nc4ccc5ncnn5c4)CC3)c2c1 [Compound 92, N-((1s,4s)-4-((7-Morpholino-1,6-naphthyridin-5-yl)oxy)cyclohexyl)-[1,2,4]triazolo[1,5-a]pyridin-6-amine]
1 to 10	1 to 10	0.0005 to 0.001	0.1 to 1		O=C(N[C@H]1CC[C@@H](Oc2nc(N3CCOCC3)cc3ncc(Br)cc23)CC1)c1ncccn1 [Compound 176, N-((1s,4s)-4-((3-bromo-7-morpholino-1,6-naphthyridin-5-yl)oxy)cyclohexyl)pyrimidine-2-carboxamide]
1 to 10	1 to 10	< 0.0005	0.1 to 1		CCS(=O)(=O)Nc1cnc2cc(N3CCOCC3)nc(O[C@H]3CC[C@@H](Nc4ncccn4)CC3)c2c1 [Compound 188, N-(7-morpholino-5-(((1s,4s)-4-(pyrimidin-2-ylamino)cyclohexyl)oxy)-1,6-naphthyridin-3-yl)ethanesulfonamide]
0.5 to 1	0.5 to 1	0.0005 to 0.001	< 0.1		CN(c1ncccn1)[C@H]1CC[C@@H](Oc2nc(N3CCOCC3)cc3ncc(NS(C)(=O)=O)cc23)CC1 [Compound 198, N-(5-(((1s,4s)-4-(methyl(pyrimidin-2-yl)amino)cyclohexyl)oxy)-7-morpholino-1,6-naphthyridin-3-yl)methanesulfonamide]
